From US12478614B2, “Inhibitors of glutathione s-transferases (GSTs) and NAD(P)H:quinone oxidoreductase 1 (NQO1), pharmaceutical compositions, and uses in managing cancer” (Emory University, priority 2020, dated 2025)
pIC50, pKd: −log10 of the molar value. “Also recorded” adds a separate entry of the source.

Experiments:
GSTP1 [1] = assay: GSTP1 protein level upon treatment; type: cell-based; settings: upon MNPC treatment
Procedure: (§1) To explore the anti-proliferative effects of MNPC, U87MG/EGFRVIII cells were treated with different doses of MNPC (0, 0.1, 0.5, 1 and 5 μM) for 5 days. […] Asparagine endopeptidase (AEP) is frequently overexpressed in numerous human cancers and mediates cancer cell invasion and metastasis. […] Since NQO1 and GSTP1 are the major binding proteins of MNPC, in vitro reductase enzyme activity assays with purified recombinant proteins was conducted. […] NQO1 also acts as an antioxidant enzyme by regenerating antioxidant forms of ubiquinone and vitamin E quinone. To explore whether the oxidative stress levels are correlated with the expression levels of antioxidant enzymes: NQO1 and GSTP1, the cellular ROS concentrations and cytotoxicity after MNPC treatment was examined. […] Thus, MNPC inhibits GSTP1 and NQ01 enzyme activities without altering their protein levels. […] The results were also confirmed by TUNEL assay.

U87MG/EGFR cells = assay: Cellular oxidative stress and cytotoxicity after MNPC treatment; type: cell-based
Procedure: as §1

GSTP1 [2] = target: T1, GSTP1 (Homo sapiens, UniProt P09211); assay: In vitro enzyme activity assay, GSTP1; type: biochemical; settings: purified recombinant protein
Procedure: as §1

NQO1 [3] = target: T2, NQO1 (Homo sapiens, UniProt P15559); assay: BIACORE binding assay, NQO1; settings: MNPC immobilized to the chip
GSTP1 [4] = target: T1, GSTP1; assay: BIACORE binding assay, GSTP1; settings: MNPC immobilized to the chip
U87MG/EGFRvIII cells [5] = assay: Murine intracranial xenograft model with U87MG/EGFRvIII cells; type: in vivo, Nu/Nu nude mice
Procedure: Nu/Nu nude mice were treated with increasing doses (3, 10 mg/kg) of MNPC by i.p. every two days for total 10 times (n=6 mice per group). The survival curves of brain tumor-bearing mice were calculated.
To assess the therapeutic potential of MNPC, a murine intracranial xenograft model was used, inoculated with U87MG/EGFRvIII cells. After 7 days of brain injection of the GBM cells and the tumor formation, the animals were treated with vehicle or different doses of MNPC (3 or 10 mg/kg) every 2 days for a total of 10 times. […] The ROS levels and signaling cascades were examined in the tissue samples derived from tumors extracted from MNPC or vehicle-treated mice.

[6] = target: T3, Asparagine endopeptidase (AEP) (Homo sapiens, UniProt Q99538); assay: AEP enzymatic activity assay; type: cell-based
T3 construct: endogenous in cells; host or cells: U87MG/EGFRvIII (inferred from context)
T3 sequence (Q99538 18-323): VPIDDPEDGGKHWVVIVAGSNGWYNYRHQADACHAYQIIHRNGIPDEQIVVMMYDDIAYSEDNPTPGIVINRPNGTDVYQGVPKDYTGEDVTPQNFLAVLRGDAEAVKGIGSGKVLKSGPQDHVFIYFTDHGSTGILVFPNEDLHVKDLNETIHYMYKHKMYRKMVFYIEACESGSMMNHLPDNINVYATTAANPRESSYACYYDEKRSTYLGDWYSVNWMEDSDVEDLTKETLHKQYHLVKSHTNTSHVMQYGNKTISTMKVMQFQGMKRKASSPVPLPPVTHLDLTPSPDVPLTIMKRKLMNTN
Procedure: as §1

U87MG/EGFRvIII cells [7] = assay: Cell invasion assay; type: cell-based
Procedure: as §1

GSTP1 [8] = target: T1, GSTP1; assay: Co-crystal structure with GSTP1
Procedure: (§2) Experiments indicate that both NQO1 and GSTP1 were overexpressed in GBM, which inhibit the oxidative stress and prevent cancer cell death. Compounds which act as NQO1 and GSTP1 dual inhibitors suppress the proliferation and stimulated apoptosis in U87MG/EGFRVIII cells. […] Thus, these experiments indicate that a small dual inhibitor for both NQO1 and GSTP1 disrupting the redox homeostasis might be an innovative strategy for GBM therapy.

NQO1 [9] = target: T2, NQO1; assay: Co-crystal structure with NQO1
Procedure: as §2

U87MG/EGFRvIII cells [10] = assay: Proliferation of U87MG/EGFRvIII cells; type: cell-based
Procedure: After structure-activity relationship (SAR) analysis, it was identified that that most compounds contained two aromatic rings bridged through an amide group.
as §1

NQO1 [11] = target: T2, NQO1; assay: In vitro reductase enzyme activity assay, NQO1; type: biochemical; settings: purified recombinant protein
Procedure: as §1

NQO1 [12] = assay: NQO1 protein level upon treatment; type: cell-based; settings: upon MNPC treatment
Procedure: as §1

U87MG/EGFRvIII cells [13] = assay: Apoptosis (caspase-3 activation, TUNEL assay); type: cell-based
Procedure: as §1

[14] = 3 or 10 mg/kg i.p. every 2 days, 10 times, especially 10 mg/kg

In the case of `Cc1onc(-c2ccccc2)c1C(=O)Nc1ncc([N+](=O)[O-])s1` [MNPC, 5-methyl-N-(5-nitrothiazol-2-yl)-3-phenylisoxazole-4-carboxamide], the “protein level of GSTP1” value (GSTP1 [1]) was “not changed”, the “Carbonyl Expression” value (U87MG/EGFR cells) was “escalated” and the LDH (U87MG/EGFR cells; cytotoxicity) was “escalated”. The ROS levels (U87MG/EGFR cells; dose-dependent) was “increased”, the GSH/GSSH ratios (U87MG/EGFR cells; in a dose-dependent manner) was “down-regulated” and the pIC50 (GSTP1 [2]) was 6.10. The pKd (NQO1 [3]) was 7.04, the pKd (GSTP1 [4]) was 7.05 and the “tumor growth (intracranial tumor volume)” value (U87MG/EGFRvIII cells [5]; 3 or 10 mg/kg i.p. every 2 days, 10 times) was “dose-dependent anti-tumor effect; also recorded: suppresses tumor growth”. The body weight (U87MG/EGFRvIII cells [5]; [14]) was “significantly increased”, the survival rates (U87MG/EGFRvIII cells [5]; [14]) was “prolonged the survival rate; also recorded: significantly increased; also recorded: elongates mouse life span” and the “ROS levels in tumor tissue samples” value (U87MG/EGFRvIII cells [5]; tumors from treated mice) was “strongly increased”. The “apoptotic caspase 3 in tumor tissue samples” value (U87MG/EGFRvIII cells [5]; tumors from treated mice) was “activated”, the AEP enzymatic activity [6] was “no significant difference” and the cell invasion (U87MG/EGFRvIII cells [7]) was “no significant difference”. The “effect on GSTP1 active site in co-crystal structure” value (GSTP1 [8]) was “blocked the active enzymatic sites”, the “effect on NQO1 active site in co-crystal structure” value (NQO1 [9]) was “blocked the active enzymatic sites” and the cell proliferation (U87MG/EGFRvIII cells [10]; U87MG/EGFRVIII cells, 0, 0.1, 0.5, 1 and 5 μM for 5 days) was “dose-dependently inhibited”. For the same molecule, the pIC50 (NQO1 [11]) was 6.03, the “protein level of NQO1” value (NQO1 [12]) was “not changed” and the cell apoptosis (U87MG/EGFRvIII cells [13]; TUNEL assay) was “dose-dependently increases”. The caspase-3 activation (U87MG/EGFRvIII cells [13]; U87MG/EGFRvIII cells) was “induced”.
In the case of `CC(=O)Oc1ccccc1C(=O)Nc1ncc([N+](=O)[O-])s1` [NTZ, 2-((5-nitrothiazol-2-yl)carbamoyl)phenyl acetate], the “anti-proliferative activities toward U87MG/EGFRvIII cells compared with MNPC” value (U87MG/EGFRvIII cells [10]) was “comparable anti-proliferative activities”.
With `O=C(Nc1ncc([N+](=O)[O-])s1)c1ccccc1O` [TIZ, 2-hydroxy-N-(5-nitrothiazol-2-yl)benzamide] the “anti-proliferative activities toward U87MG/EGFRvIII cells compared with MNPC” value (U87MG/EGFRvIII cells [10]) was “comparable anti-proliferative activities”.
